Assay results reported in patent publication US5876694A, “Azavesamicols” (priority 1997, dated 1999).
Read-outs that look alike come from different tables or passages of the source.

Key:
Format in all cases: in vivo, male Wistar rats
vesamicol receptor [1] = assay: Ex vivo autoradiography of rat brain; settings: 3 hrs after iv
Description: Ex-vivo Autoradiographic Studies
Two groups of male Wistar rats (n=2) were used in these experiments. Each animal in the first group received an i.v. injection of (+)-[^125 I]12h (385 uCi in 0.1/ml of 50% aq. EtOH). Similarly, animals in the second group received 330 uCi of (-)-[^125 I]12h (in 0.1 ml of 50% aq. EtOH). After 3 hrs, the animals were sacrificed by decapitation. The brains were carefully removed, embedded in Tissue Tek OCT medium and frozen to […] Twenty micron thick coronal brain slices were subsequently obtained by sectioning rostrocaudally with a Reichert HistoSTAT microtome at -15°. The tissue sections were apposed to Kodak NMC film accompanied by ^125 I-labeled external standards (^125 I-Microscales from Amersham). For delineation of cytoarchitecture, adjacent tissue sections were subjected to Nissl staining.

[2] = Blocking experiment 1: co-injection of (dl)-vesamicol with radiotracer; settings: rat, iv, 60 min
Description: (§1) Two separate experiments each utilizing two groups of male Wistar rats (n=3) were performed.
(§2) Experiment 1. Animals in Group 1 (control) each received an intravenous injection of the radiotracer (4.7 uCi in 100 uL of 50% aq. EtOH). […] At 60 min post-injection, the animals were sacrificed and the tissues were harvested as outlined above.
(§3) Animals in Group 1 received a single i.v. injection of radiotracer.
(§4) Animals in Group 2 were administered with a mixture of the radiotracer an
(§5) All animals were sacrificed a
(§6) 60 min postradiotracer injection.

vesamicol receptor [3] = assay: as above; settings: 60 min, iv
Description: as §1, §2, §3, §4, §5, §6

[4] = Blocking experiment 2: effect of vesamicol pretreatment on radiotracer accumulation; settings: rat, iv, 2 uCi, 30 min postradiotracer
Description: (§7) Two separate experiments each utilizing two groups of male Wistar rats (n=3) were performed. […]
(§8) At time = 0, animals in group 1 injected intravenously with vehicle (50%)
(§9) aq. EtOH; 0.2 ml), while animals in group 2 each received an i.v.
(§10) injection of (dl)vesamicol. HCl (1.01 umol/Kg0). After 15 min, both group
(§11) were injected with the radiotracer, allowed to recover and sacrificed 30
(§12) min postradiotracer injection.

vesamicol receptor [5] = assay: as above; settings: 30 min postradiotracer
Description: as §7, §8, §9, §10, §11, §12

[6] = Group 2: with (dl)vesamicol hydrochloride
[7] = Group 2: (dl)vesamicol.HCl 1.01 umol/Kg pretreatment

For `O[C@@H]1CCN(Cc2cccc([125I])c2)C[C@H]1N1CCC(c2ccccc2)CC1` (single isomer, unassigned) [(-)-[^125 I]12h, (+)- and (-)-4-hydroxy-1-(3-[I^125]iodobenzyl)-3-(4-phenyl-piperidinyl)piperidine], the “brain regional distribution: cortex, caudate-putamen, hippocampus and red nucleus” value (vesamicol receptor [1]) was “high levels of radioactivity”, the “levels in cortex compared with caudate-putamen” value (vesamicol receptor [1]) was “slightly higher than those observed in the caudate-putamen” and the tissue uptake at 1 h ([2]; blood, Group 1: radiotracer alone, read-out: Blocking study, blood) was 0.09 %ID/g. For the same compound, the tissue uptake at 1 h ([2]; blood, Group 2: with (dl)vesamicol hydrochloride, read-out: Blocking study, blood) was 0.09 %ID/g, the tissue uptake at 1 h ([2]; brain, Group 1: radiotracer alone, read-out: Blocking study, brain) was 0.97 %ID/g and the tissue uptake at 1 h ([2]; brain, Group 2: with (dl)vesamicol hydrochloride, read-out: Blocking study, brain) was 0.29 %ID/g. The tissue uptake at 1 h ([2]; gonads, Group 1: radiotracer alone, read-out: Blocking study, gonads) was 0.21 %ID/g, the tissue uptake at 1 h ([2]; gonads, Group 2: with (dl)vesamicol hydrochloride, read-out: Blocking study, gonads) was 0.22 %ID/g and the tissue uptake at 1 h ([2]; heart, Group 1: radiotracer alone, read-out: Blocking study, heart) was 0.5 %ID/g. It also gave a tissue uptake at 1 h ([2]; heart, Group 2: with (dl)vesamicol hydrochloride, read-out: Blocking study, heart) of 0.16 %ID/g, a tissue uptake at 1 h ([2]; kidney, Group 1: radiotracer alone, read-out: Blocking study, kidney) of 3.11 %ID/g and a tissue uptake at 1 h ([2]; kidney, Group 2: with (dl)vesamicol hydrochloride, read-out: Blocking study, kidney) of 0.89 %ID/g. It also gave a tissue uptake at 1 h ([2]; liver, Group 1: radiotracer alone, read-out: Blocking study, liver) of 2.45 %ID/g, a tissue uptake at 1 h ([2]; liver, Group 2: with (dl)vesamicol hydrochloride, read-out: Blocking study, liver) of 2.31 %ID/g and a tissue uptake at 1 h ([2]; lung, Group 1: radiotracer alone, read-out: Blocking study, lung) of 1.96 %ID/g. It also gave a tissue uptake at 1 h ([2]; lung, Group 2: with (dl)vesamicol hydrochloride, read-out: Blocking study, lung) of 0.76 %ID/g, a tissue uptake at 1 h ([2]; muscle, Group 1: radiotracer alone, read-out: Blocking study, muscle) of 0.26 %ID/g and a tissue uptake at 1 h ([2]; muscle, Group 2: with (dl)vesamicol hydrochloride, read-out: Blocking study, muscle) of 0.12 %ID/g. For the same compound, the tissue uptake at 1 h ([2]; spleen, Group 1: radiotracer alone, read-out: Blocking study, spleen) was 1.1 %ID/g, the tissue uptake at 1 h ([2]; spleen, Group 2: with (dl)vesamicol hydrochloride, read-out: Blocking study, spleen) was 0.58 %ID/g and the tissue uptake at 1 h ([2]; thyroid, Group 1: radiotracer alone, read-out: Blocking study, thyroid) was 5.58 %ID/g. For the same compound, the tissue uptake at 1 h ([2]; thyroid, Group 2: with (dl)vesamicol hydrochloride, read-out: Blocking study, thyroid) was 6.55 %ID/g, the “Blocking study, ratio brain/blood” value (vesamicol receptor [3]; Group 1: radiotracer alone) was 10.44 and the “Blocking study, ratio heart/blood” value (vesamicol receptor [3]; Group 1: radiotracer alone) was 5.37. For the same compound, the “Blocking study, ratio brain/blood” value (vesamicol receptor [3]; [6]) was 3.30, the “Blocking study, ratio heart/blood” value (vesamicol receptor [3]; [6]) was 1.87 and the tissue uptake at 0.5 h ([4]; blood, Group 1: vehicle pretreatment, read-out: Accumulation after pretreatment, blood) was 0.11 %ID/g. It also gave a tissue uptake at 0.5 h ([4]; blood, Group 2: (dl)vesamicol.HCl 1.01 umol/Kg pretreatment, read-out: Accumulation after pretreatment, blood) of 0.12 %ID/g, a tissue uptake at 0.5 h ([4]; brain, Group 1: vehicle pretreatment, read-out: Accumulation after pretreatment, brain) of 0.68 %ID/g and a tissue uptake at 0.5 h ([4]; brain, Group 2: (dl)vesamicol.HCl 1.01 umol/Kg pretreatment, read-out: Accumulation after pretreatment, brain) of 0.34 %ID/g. For the same compound, the tissue uptake at 0.5 h ([4]; gonads, Group 1: vehicle pretreatment, read-out: Accumulation after pretreatment, gonads) was 0.15 %ID/g, the tissue uptake at 0.5 h ([4]; gonads, Group 2: (dl)vesamicol.HCl 1.01 umol/Kg pretreatment, read-out: Accumulation after pretreatment, gonads) was 0.16 %ID/g and the tissue uptake at 0.5 h ([4]; heart, Group 1: vehicle pretreatment, read-out: Accumulation after pretreatment, heart) was 0.59 %ID/g. For the same compound, the tissue uptake at 0.5 h ([4]; heart, Group 2: (dl)vesamicol.HCl 1.01 umol/Kg pretreatment, read-out: Accumulation after pretreatment, heart) was 0.3 %ID/g, the tissue uptake at 0.5 h ([4]; kidney, Group 1: vehicle pretreatment, read-out: Accumulation after pretreatment, kidney) was 2.45 %ID/g and the tissue uptake at 0.5 h ([4]; kidney, Group 2: (dl)vesamicol.HCl 1.01 umol/Kg pretreatment, read-out: Accumulation after pretreatment, kidney) was 1.13 %ID/g. For the same compound, the tissue uptake at 0.5 h ([4]; liver, Group 1: vehicle pretreatment, read-out: Accumulation after pretreatment, liver) was 1.91 %ID/g, the tissue uptake at 0.5 h ([4]; liver, Group 2: (dl)vesamicol.HCl 1.01 umol/Kg pretreatment, read-out: Accumulation after pretreatment, liver) was 1.89 %ID/g and the tissue uptake at 0.5 h ([4]; lung, Group 1: vehicle pretreatment, read-out: Accumulation after pretreatment, lung) was 2.36 %ID/g. The tissue uptake at 0.5 h ([4]; lung, Group 2: (dl)vesamicol.HCl 1.01 umol/Kg pretreatment, read-out: Accumulation after pretreatment, lung) was 1.59 %ID/g, the tissue uptake at 0.5 h ([4]; muscle, Group 1: vehicle pretreatment, read-out: Accumulation after pretreatment, muscle) was 0.18 %ID/g and the tissue uptake at 0.5 h ([4]; muscle, Group 2: (dl)vesamicol.HCl 1.01 umol/Kg pretreatment, read-out: Accumulation after pretreatment, muscle) was 0.16 %ID/g. It also gave a tissue uptake at 0.5 h ([4]; spleen, Group 1: vehicle pretreatment, read-out: Accumulation after pretreatment, spleen) of 1.05 %ID/g, a tissue uptake at 0.5 h ([4]; spleen, Group 2: (dl)vesamicol.HCl 1.01 umol/Kg pretreatment, read-out: Accumulation after pretreatment, spleen) of 0.8 %ID/g and a tissue uptake at 0.5 h ([4]; thyroid, Group 1: vehicle pretreatment, read-out: Accumulation after pretreatment, thyroid) of 2.62 %ID/g. For the same compound, the tissue uptake at 0.5 h ([4]; thyroid, Group 2: (dl)vesamicol.HCl 1.01 umol/Kg pretreatment, read-out: Accumulation after pretreatment, thyroid) was 4.56 %ID/g, the “Accumulation after pretreatment, ratio brain/blood” value (vesamicol receptor [5]; Group 1: vehicle pretreatment) was 6.45 and the “Accumulation after pretreatment, ratio heart/blood” value (vesamicol receptor [5]; Group 1: vehicle pretreatment) was 5.59. For the same compound, the “Accumulation after pretreatment, ratio brain/blood” value (vesamicol receptor [5]; [7]) was 2.75 and the “Accumulation after pretreatment, ratio heart/blood” value (vesamicol receptor [5]; [7]) was 2.40.
